# Assay results taken from patent US4337266A, “Cytostatic terminally bifunctional sugar alcohols process for preparing them and pharmaceutical compositions containing them” (priority 1979, dated 1982).
# What was measured:
# [1] = Toxicity tests, LD50 on mice after intraperitoneal administration; conditions: mouse, in vivo, ip
# Excerpt: LD50 values on mice after intraperitoneal administ-
# [2] = tested on: Walker intramuscular carcinosarcoma; experiment: Activity against Walker intramuscular carcinosarcoma; format: in vivo
# Excerpt: Activity against Walker intramuscular carcinosarcoma
# [3] = tested on: S-180 subcutan sarcoma; experiment: Activity against S-180 subcutan sarcoma; format: in vivo; conditions: 8 × 50 mg/kg/ip
# Excerpt: |Activity against S-180 subcutan sarcoma
Compound,LD50 [1],Antitumour activity ([2]; 1 × 100 mg/kg/ip),Antitumour activity [3],Antitumour activity ([2]; 1 × 50 mg/kg/ip)
"CO[C@H]([C@@H]1CO1)[C@H]1CO1 [MMDAX, 1,2-4,5-dianhydro-3-methyl-xylitol]",500 mg/kg,90%,75%,–
"CO[C@H]([C@H](OC)[C@@H](O)CBr)[C@H](O)CBr [DMDBD, 1,6-dibromo-1,6-dideoxy-3,4-dimethyl dulcitol]",700 mg/kg,99%,90%,80%
"CO[C@H]([C@H](OC)[C@@H]1CO1)[C@H]1CO1 [DMDAD, 1,2-5,6-dianhydro-3,4-dimethyl dulcitol]",680 mg/kg,80%,80%,55%
